This is an account of results in patent publication US8952157B2, “Apoptosis-inducing agents for the treatment of cancer and immune and autoimmune diseases” (AbbVie Inc., priority 2008, dated 2015).

By Ki is commonly meant a measure of affinity in units of concentration, obtained from inhibition or displacement. A lower Ki goes with a stronger hold on the target.

Sequence of GST-Bcl-2 (P10415 whole entry): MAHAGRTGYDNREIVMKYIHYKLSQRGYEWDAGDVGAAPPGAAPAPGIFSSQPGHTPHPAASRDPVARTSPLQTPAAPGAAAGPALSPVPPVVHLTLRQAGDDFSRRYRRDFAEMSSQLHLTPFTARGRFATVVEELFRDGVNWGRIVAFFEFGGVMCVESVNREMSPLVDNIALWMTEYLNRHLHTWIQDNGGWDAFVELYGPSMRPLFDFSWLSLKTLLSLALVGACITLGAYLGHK

One assay addresses GST-Bcl-2 (Homo sapiens (Human), UniProt P10415). Put plainly: Time Resolved-Fluorescence Resonance Energy Transfer (TR-FRET) Bcl-2 binding assay.
Settings: not given
A digest of the protocol: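 Competition TR-FRET: GST-Bcl-2 with fluorescent Bak peptide probe and Tb-anti-GST antibody, compounds serially diluted from 50 μM (2× start, 10% DMSO).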
In general terms: Time-resolved FRET reads energy transfer from a long-lived donor to a nearby acceptor.
For the compound `CO[C@H]1CC[C@H](CNc2ccc(S(=O)(=O)NC(=O)c3ccc(N4CCN(CC5=C(c6ccc(Cl)cc6)CC(C)(C)CC5)CC4)cc3Oc3ccc(NCC(F)F)nc3)cc2[N+](=O)[O-])CC1` [Example 375, Trans-4-(4-{[2-(4-chlorophenyl)-4,4-dimethylcyclohex-1-en-1-yl]methyl}piperazin-1-yl)-2-({6-[(2,2-difluoroethyl)amino]pyridin-3-yl}oxy)-N-[(4-{[(4-methoxycyclohexyl)methyl]amino}-3-nitrophenyl)sulfonyl]benzamide], the Ki was 328 nM.

Still in this assay, the particulars now being: GST-Bcl-2 1 nM, F-Bak peptide probe 100 nM, Tb-anti-GST antibody 1 nM; Ki by Wang's equation.
In the case of `CC1(C)CCC(CN2CCN(c3ccc(C(=O)NS(=O)(=O)c4ccc(NCCCN5CCOCC5)c(S(=O)(=O)C(F)(F)F)c4)c(Oc4cnc(N)c(Cl)c4)c3)CC2)=C(c2ccc(Cl)cc2)C1` [Example 347, 2-[(6-amino-5-chloropyridin-3-yl)oxy]-4-(4-{[2-(4-chlorophenyl)-4,4-dimethylcyclohex-1-en-1-yl]methyl}piperazin-1-yl)-N-({4-[(3-morpholin-4-ylpropyl)amino]-3-[(trifluoromethyl)sulfonyl]phenyl}sulfonyl)benzamide], affinity was put at a Ki of 0.377 nM.
Still for that read-out and setting: the figure for `CC1(C)CCC(CN2CCN(c3ccc(C(=O)NS(=O)(=O)c4ccc(NCC5CCOCC5)c([N+](=O)[O-])c4)c(Oc4cc(N)nc(Br)c4)c3)CC2)=C(c2ccc(Cl)cc2)C1` [Example 379, 2-[(2-amino-6-bromopyridin-4-yl)oxy]-4-(4-{[2-(4-chlorophenyl)-4,4-dimethylcyclohex-1-en-1-yl]methyl}piperazin-1-yl)-N-({3-nitro-4-[(tetrahydro-2H-pyran-4-ylmethyl)amino]phenyl}sulfonyl)benzamide] is 17.9 nM; for `CC1(C)CCC(CN2CCN(c3ccc(C(=O)NS(=O)(=O)c4ccc(OCC5(F)CCOCC5)c([N+](=O)[O-])c4)c(Oc4cccc5c4CC(=O)N5)c3)CC2)=C(c2ccc(Cl)cc2)C1` [Example 313, 4-(4-{[2-(4-chlorophenyl)-4,4-dimethylcyclohex-1-en-1-yl]methyl}piperazin-1-yl)-N-({4-[(4-fluorotetrahydro-2H-pyran-4-yl)methoxy]-3-nitrophenyl}sulfonyl)-2-[(2-oxo-2,3-dihydro-1H-indol-4-yl)oxy]benzamide] it is below 0.01 nM.
Regarding `CN1CCC(Nc2ccc(S(=O)(=O)NC(=O)c3ccc(N4CCN(CC5=C(c6ccc(Cl)cc6)CCCC5)CC4)cc3Oc3ccccc3Cl)cc2[N+](=O)[O-])CC1` [Example 43, 2-(2-chlorophenoxy)-4-(4-((2-(4-chlorophenyl)cyclohex-1-en-1-yl)methyl)piperazin-1-yl)-N-((4-((1-methylpiperidin-4-yl)amino)-3-nitrophenyl)sulfonyl)benzamide], the Ki worked out at 0.034 nM.
Same read-out and setting: the figure for `CC1(C)CCC(CN2CCN(c3ccc(C(=O)NS(=O)(=O)c4ccc(NCCN5CCOCC5)c([N+](=O)[O-])c4)c(Oc4cccc(Cl)c4F)c3)CC2)=C(c2ccc(Cl)cc2)C1` [Example 150, 2-(3-chloro-2-fluorophenoxy)-4-(4-{[2-(4-chlorophenyl)-4,4-dimethylcyclohex-1-en-1-yl]methyl}piperazin-1-yl)-N-({4-[(2-morpholin-4-ylethyl)amino]-3-nitrophenyl}sulfonyl)benzamide] is 0.759 nM; for `CC1(C)CCC(CN2CCN(c3ccc(C(=O)NS(=O)(=O)c4ccc(NC5CCN(C6CCOCC6)CC5)c([N+](=O)[O-])c4)c(Oc4cc5cc[nH]c5cc4C(F)(F)F)c3)CC2)=C(c2ccc(Cl)cc2)C1` [Example 218, 4-(4-{[2-(4-chlorophenyl)-4,4-dimethylcyclohex-1-en-1-yl]methyl}piperazin-1-yl)-N-({3-nitro-4-[(1-tetrahydro-2H-pyran-4-ylpiperidin-4-yl)amino]phenyl}sulfonyl)-2-{[6-(trifluoromethyl)-1H-indol-5-yl]oxy}benzamide] it is 0.175 nM; for `CN1CCC(Nc2ccc(S(=O)(=O)NC(=O)c3ccc(N4CCN(CC5=C(c6ccc(Cl)cc6)CC(C)(C)CC5)CC4)cc3Oc3ccc(F)cc3)cc2[N+](=O)[O-])CC1` [Example 118, 4-(4-{[2-(4-chlorophenyl)-4,4-dimethylcyclohex-1-en-1-yl]methyl}piperazin-1-yl)-2-(4-fluorophenoxy)-N-({4-[(1-methylpiperidin-4-yl)amino]-3-nitrophenyl}sulfonyl)benzamide] it is 0.151 nM.
The compound `Cc1c(O)cccc1Oc1cc(N2CCN(CC3=C(c4ccc(Cl)cc4)CC(C)(C)CC3)CC2)ccc1C(=O)NS(=O)(=O)c1ccc(NC2CCN(C)CC2)c([N+](=O)[O-])c1` [Example 159] displayed a Ki of 0.526 nM.
With `CN1CCC(Nc2ccc(S(=O)(=O)NC(=O)c3ccc(N4CCN(CC5=C(c6ccc(Cl)cc6)CC(C)(C)CC5)CC4)cc3Oc3cccc(Br)c3)cc2[N+](=O)[O-])CC1` [Example 46, 2-(3-bromophenoxy)-4-(4-((2-(4-chlorophenyl)-4,4-dimethylcyclohex-1-en-1-yl)methyl)piperazin-1-yl)-N-((4-((1-methylpiperidin-4-yl)amino)-3-nitrophenyl)sulfonyl)benzamide], the Ki was 0.047 nM.
Same read-out and setting: the figure for `CC1(C)CCC(CN2CCN(c3ccc(C(=O)NS(=O)(=O)c4ccc(NC5CCN(CC6CC6)CC5)c([N+](=O)[O-])c4)c(Oc4cc5cc[nH]c5cc4F)c3)CC2)=C(c2ccc(Cl)cc2)C1` [Example 236, 4-(4-{[2-(4-chlorophenyl)-4,4-dimethylcyclohex-1-en-1-yl]methyl}piperazin-1-yl)-N-[(4-{[1-(cyclopropylmethyl)piperidin-4-yl]amino}-3-nitrophenyl)sulfonyl]-2-[(6-fluoro-1H-indol-5-yl)oxy]benzamide] is 0.071 nM; for `CC1(C)CCC(CN2CCN(c3ccc(C(=O)NS(=O)(=O)c4cnc(OCC5COCCO5)c(C#N)c4)c(Oc4cc5cc[nH]c5cc4F)c3)CC2)=C(c2ccc(Cl)cc2)C1` (stereo not shown) [Example 305, 4-(4-{[2-(4-chlorophenyl)-4,4-dimethylcyclohex-1-en-1-yl]methyl}piperazin-1-yl)-N-{[5-cyano-6-(1,4-dioxan-2-ylmethoxy)pyridin-3-yl]sulfonyl}-2-[(6-fluoro-1H-indol-5-yl)oxy]benzamide] it is 0.146 nM.
On the same count and under the same terms, the figure for `CC1(C)CCC(CN2CCN(c3ccc(C(=O)NS(=O)(=O)c4ccc(NCC5CCOCC5)c([N+](=O)[O-])c4)c(Oc4cncc(Br)c4)c3)CC2)=C(c2ccc(Cl)cc2)C1` [Example 274, 2-[(5-bromopyridin-3-yl)oxy]-4-(4-{[2-(4-chlorophenyl)-4,4-dimethylcyclohex-1-en-1-yl]methyl}piperazin-1-yl)-N-({3-nitro-4-[(tetrahydro-2H-pyran-4-ylmethyl)amino]phenyl}sulfonyl)benzamide] is 0.936 nM.
On the same count and under the same terms, the figure for `CC1(C)CC(c2ccc(Cl)cc2)=C(CN2CCN(c3ccc(C(=O)NS(=O)(=O)c4ccc(NCC5CCOCC5)c([N+](=O)[O-])c4)c(Oc4cnc(N)c(Cl)c4)c3)CC2)CO1` [Example 387, 2-[(6-amino-5-chloropyridin-3-yl)oxy]-4-(4-{[4-(4-chlorophenyl)-6,6-dimethyl-5,6-dihydro-2H-pyran-3-yl]methyl}piperazin-1-yl)-N-({3-nitro-4-[(tetrahydro-2H-pyran-4-ylmethyl)amino]phenyl}sulfonyl)benzamide] is below 0.01 nM; for `CC1(C)CCC(CN2CCN(c3ccc(C(=O)NS(=O)(=O)c4ccc(NCC5CCOCC5)c([N+](=O)[O-])c4)c(Oc4cnc(N)c(F)c4)c3)CC2)=C(c2ccc(Cl)cc2)C1` [Example 302, 2-[(6-amino-5-fluoropyridin-3-yl)oxy]-4-(4-{[2-(4-chlorophenyl)-4,4-dimethylcyclohex-1-en-1-yl]methyl}piperazin-1-yl)-N-({3-nitro-4-[(tetrahydro-2H-pyran-4-ylmethyl)amino]phenyl}sulfonyl)benzamide] it is below 0.01 nM.
`CC1(C)CCC(CN2CCN(c3ccc(C(=O)NS(=O)(=O)c4ccc(NC5CCN(C6CCOCC6)CC5)c([N+](=O)[O-])c4)c(Oc4ccc(N)nc4)c3)CC2)=C(c2ccc(Cl)cc2)C1` [Example 261, 2-[(6-aminopyridin-3-yl)oxy]-4-(4-{[2-(4-chlorophenyl)-4,4-dimethylcyclohex-1-en-1-yl]methyl}piperazin-1-yl)-N-({3-nitro-4-[(1-tetrahydro-2H-pyran-4-ylpiperidin-4-yl)amino]phenyl}sulfonyl)benzamide] registered a Ki of 0.186 nM.
`CN(C)CCCNc1ccc(S(=O)(=O)NC(=O)c2ccc(N3CCN(CC4=C(c5ccc(Cl)cc5)CC(C)(C)CC4)CC3)cc2Oc2ccc3c(ccn3C(=O)OC(C)(C)C)c2)cc1[N+](=O)[O-]` [Example 231, tert-butyl 5-[5-(4-{[2-(4-chlorophenyl)-4,4-dimethylcyclohex-1-en-1-yl]methyl}piperazin-1-yl)-2-({[(4-{[3-(dimethylamino)propyl]amino}-3-nitrophenyl)sulfonyl]amino}carbonyl)phenoxy]-1H-indole-1-carboxylate] gave a Ki of 36.9 nM.
Still for that read-out and setting: the figure for `CN1CCN(Nc2ccc(S(=O)(=O)NC(=O)c3ccc(N4CCN(CC5=C(c6ccc(Cl)cc6)CC(C)(C)CC5)CC4)cc3Oc3cc4cc[nH]c4cc3Cl)cc2[N+](=O)[O-])CC1` [Example 244, 2-[(6-chloro-1H-indol-5-yl)oxy]-4-(4-{[2-(4-chlorophenyl)-4,4-dimethylcyclohex-1-en-1-yl]methyl}piperazin-1-yl)-N-({4-[(4-methylpiperazin-1-yl)amino]-3-nitrophenyl}sulfonyl)benzamide] is 1.73 nM.
`CC1(C)CCC(CN2CCN(c3ccc(C(=O)NS(=O)(=O)c4ccc(NCCN5CCOCC5)c([N+](=O)[O-])c4)c(Oc4cccc(F)c4F)c3)CC2)=C(c2ccc(Cl)cc2)C1` [Example 135, 4-(4-{[2-(4-chlorophenyl)-4,4-dimethylcyclohex-1-en-1-yl]methyl}piperazin-1-yl)-2-(2,3-difluorophenoxy)-N-({4-[(2-morpholin-4-ylethyl)amino]-3-nitrophenyl}sulfonyl)benzamide] yielded a Ki of 0.068 nM.
